TGI and GI50 data for 15 molecules are collected here from PubChem BioAssay (NCI).

SMILES strings stand for the structures.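 Exposure lasted 48 hours, with cells grown in 96-well plates and compounds tested at five concentrations. GI50 is the concentration that inhibits growth by half. TGI marks complete inhibition of growth.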

Some test systems named below: 786-0 renal; A498 renal; COLO 205 colon; HCC-2998 colon; MDA-MB-435; NCI-H460 lung; RXF 393 renal; SK-MEL-2 melanoma; SK-OV-3 ovarian; TK-10 renal.
What all share (test): growth of human tumour cells (NCI), 48 h

For `Nc1ccc(-c2nc3ccccc3s2)cc1C(F)(F)F`, the TGI in the test on 786-0 renal was determined as 26.6 µM; in the test with A498 renal, 31.4 µM; in the test on COLO 205 colon, 36.7 µM; with HCC-2998 colon it was 22.4 µM; with MDA-MB-435, 30.2 µM; in the test with NCI-H460 lung, 28.5 µM. Besides, the TGI with RXF 393 renal worked out at 21.9 µM; with SK-MEL-2 melanoma, 31.3 µM; in the test with SK-OV-3 ovarian it was 30.4 µM; with TK-10 renal, 26 µM. Besides, the GI50 in the test with HCC-2998 colon is 10.6 µM; with NCI-H460 lung it was 14.6 µM.

Turning to `N#CC(N=Nc1ccc(Cl)cc1)c1nc2ccccc2o1` (stereo unspecified), the TGI in the test on 786-0 renal, in the test with A498 renal, in the test with COLO 205 colon, in the test with HCC-2998 colon, in the test on MDA-MB-435 and in the test with NCI-H460 lung was > 100 µM each time. For the same molecule, the TGI in the test on RXF 393 renal was > 100 µM; in the test with SK-MEL-2 melanoma it was 88.7 µM; with SK-OV-3 ovarian, > 100 µM; in the test with TK-10 renal, > 100 µM.

Regarding `CCOC(=O)C1(C(=O)OCC)COS(=O)OC1`, the TGI in the test with A498 renal is > 100 µM; in the test on COLO 205 colon it was 54.5 µM; in the test on HCC-2998 colon it was > 100 µM; with MDA-MB-435 it was > 100 µM; in the test with NCI-H460 lung it was > 100 µM; in the test with RXF 393 renal, 32.6 µM. Moreover, the TGI in the test on SK-OV-3 ovarian and with TK-10 renal was > 100 µM in each case.

With `O=C(NCCCN(CCCCN(CCCNC(=O)C(F)(F)F)Cc1ccc2ccccc2c1)Cc1ccc2ccccc2c1)C(F)(F)F`, the TGI in the test with 786-0 renal is > 100 µM; in the test with A498 renal, > 100 µM; in the test with HCC-2998 colon it was 2.93 µM; in the test on MDA-MB-435 it was 3.87 µM; in the test on NCI-H460 lung it was 23.7 µM; in the test with RXF 393 renal, > 100 µM. Further, the TGI with SK-MEL-2 melanoma, in the test with SK-OV-3 ovarian and with TK-10 renal was > 100 µM throughout.

On to `NC(CC1=CS(=O)(=O)c2ccc(Cl)cc21)C(=O)O` (stereo unspecified), for which the TGI with 786-0 renal, in the test with A498 renal, in the test on COLO 205 colon, in the test with MDA-MB-435, in the test on NCI-H460 lung and in the test on RXF 393 renal was > 100 µM in each case. For the same molecule, the TGI in the test with SK-MEL-2 melanoma, with SK-OV-3 ovarian and in the test on TK-10 renal was > 100 µM in each case.

Take `C=C1c2cc3c(cc2CC12Cc1cc4c(cc1C2=O)CCC4)CCC3` (stereo unspecified): the TGI with 786-0 renal, with A498 renal, in the test with HCC-2998 colon, with MDA-MB-435, in the test on NCI-H460 lung and in the test with RXF 393 renal was > 100 µM in each case. The TGI in the test with SK-MEL-2 melanoma, in the test with SK-OV-3 ovarian and in the test with TK-10 renal was > 100 µM in each case.

Consider `C/C1=C\CC[C@@]2(C)O[C@@H]2C[C@@H](C2(C)CO2)CC/C(C)=C/CC1` (stereo partly specified), for which the TGI in the test on 786-0 renal is 31.8 µM; in the test on A498 renal, > 100 µM; with COLO 205 colon, 33.2 µM; in the test with HCC-2998 colon, 39.2 µM; in the test on MDA-MB-435, 46.4 µM; in the test with NCI-H460 lung, 37.8 µM. Moreover, the TGI with SK-MEL-2 melanoma is 71.8 µM; in the test on SK-OV-3 ovarian, > 100 µM; in the test on TK-10 renal it was 32.5 µM.

Turning to `C(/C=C(\Nc1ccccc1)C12CC3CC(CC(C3)C1)C2)=Nc1ccccc1`, the TGI with 786-0 renal is 29.3 µM; with A498 renal, > 100 µM; with COLO 205 colon, 32.6 µM; in the test on HCC-2998 colon it was 33.2 µM; in the test on MDA-MB-435, 34.3 µM; in the test on NCI-H460 lung, 62.6 µM. In addition, the TGI is 35.4 µM with RXF 393 renal, 46.5 µM with SK-OV-3 ovarian and 45.4 µM in the test with TK-10 renal.

As for `CCOC(=O)C(Cl)(Cl)/S(=N\S(=O)(=O)c1ccccc1)NC(=O)c1ccccc1` (stereo unspecified), the TGI in the test on 786-0 renal, in the test on A498 renal, in the test with COLO 205 colon, in the test on MDA-MB-435, in the test with NCI-H460 lung and with RXF 393 renal was > 100 µM in each case. The TGI in the test with SK-MEL-2 melanoma, in the test with SK-OV-3 ovarian and in the test with TK-10 renal was > 100 µM in each case.

On to `O=C(NC(COC(=O)C(Cc1ccccc1)NC(=O)c1ccccc1)Cc1ccccc1)c1ccccc1` (stereo unspecified), for which the TGI in the test with A498 renal, with HCC-2998 colon, with MDA-MB-435, in the test with NCI-H460 lung, in the test on SK-MEL-2 melanoma and with SK-OV-3 ovarian was > 50 µM throughout. In the test with TK-10 renal, the TGI is > 50 µM.

As for `CCCCNC(=S)N/N=C/c1cccc(C)n1`, the TGI in the test with 786-0 renal, in the test on A498 renal, in the test with COLO 205 colon, in the test with MDA-MB-435, in the test with NCI-H460 lung and with SK-OV-3 ovarian was > 100 µM throughout. For the same molecule, the TGI in the test with TK-10 renal came out at 97.6 µM.

`COc1ccc(/C=C2\C[C@H]3[C@@H]4CCC5=C/C(=N/O)CC[C@]5(C)[C@H]4CC[C@]3(C)\C2=N\O)cc1OC`: the TGI with 786-0 renal, in the test with A498 renal, with HCC-2998 colon, with MDA-MB-435, in the test on NCI-H460 lung and in the test on RXF 393 renal was > 100 µM in each case. The values for the TGI in the test on SK-MEL-2 melanoma and in the test on SK-OV-3 ovarian were 54.5 µM and > 100 µM, respectively.

As to `COc1ccc(S(=O)(=O)N2C(=O)CCC2C(=O)NN)cc1` (stereo unspecified), the TGI in the test on 786-0 renal, in the test on A498 renal, with COLO 205 colon, with HCC-2998 colon, in the test on MDA-MB-435 and with NCI-H460 lung was > 100 µM in each case. The TGI with SK-MEL-2 melanoma, in the test with SK-OV-3 ovarian and with TK-10 renal was > 100 µM each time.

For the molecule `NNC1=N/C(=C\c2ccco2)C(Cl)=N1`, the TGI in the test on 786-0 renal, in the test with A498 renal, in the test with COLO 205 colon, in the test on HCC-2998 colon, in the test on MDA-MB-435 and in the test with RXF 393 renal was > 100 µM in each case. The TGI with SK-MEL-2 melanoma, in the test on SK-OV-3 ovarian and with TK-10 renal was > 100 µM throughout.

Turning to `Cc1ccc([N+](=O)[O-])cc1N=NC(=O)NNc1cc([N+](=O)[O-])ccc1C`, the TGI in the test on A498 renal is 84.4 µM; with COLO 205 colon, > 100 µM; with HCC-2998 colon, 58 µM; in the test with MDA-MB-435, 53 µM; in the test with RXF 393 renal, 66.6 µM; in the test with SK-MEL-2 melanoma, > 100 µM. The TGI in the test on SK-OV-3 ovarian amounted to 36 µM.
